Read-outs that look alike come from different tables or passages of the source.
Assays:
[1] = tested on: T. cruzi epimastigotes, Arequipa strain; experiment: Screening against extracellular epimastigotes, Arequipa strain; type: cell-based, Trypanosoma cruzi
[2] = tested on: T. cruzi epimastigotes, SN3 strain; experiment: Screening against extracellular epimastigotes, SN3 strain; type: cell-based, Trypanosoma cruzi
[3] = tested on: T. cruzi epimastigotes, Tulahuen strain; experiment: Screening against extracellular epimastigotes, Tulahuen strain; type: cell-based, Trypanosoma cruzi
Vero cells = experiment: Cytotoxicity test on Vero cells; type: cell-based; conditions: Chlorocebus sabaeus, 48 h + 24 h resazurin, read-out: Toxicity IC50 Vero cell
[4] = tested on: T. cruzi amastigotes, Arequipa strain; experiment: Screening against intracellular amastigotes, Arequipa strain; type: cell-based, Trypanosoma cruzi
[5] = tested on: T. cruzi amastigotes, SN3 strain; experiment: Screening against intracellular amastigotes, SN3 strain; type: cell-based, Trypanosoma cruzi
[6] = tested on: T. cruzi amastigotes, Tulahuen strain; experiment: Screening against intracellular amastigotes, Tulahuen strain; type: cell-based, Trypanosoma cruzi
[7] = tested on: T. cruzi trypomastigotes, Arequipa strain; experiment: Screening against bloodstream trypomastigotes, Arequipa strain; type: cell-based, Trypanosoma cruzi
[8] = tested on: T. cruzi trypomastigotes, SN3 strain; experiment: Screening against bloodstream trypomastigotes, SN3 strain; type: cell-based, Trypanosoma cruzi
[9] = tested on: T. cruzi trypomastigotes, Tulahuen strain; experiment: Screening against bloodstream trypomastigotes, Tulahuen strain; type: cell-based, Trypanosoma cruzi
[10] = tested on: Vero cells infected with T. cruzi Arequipa strain; experiment: Infection rate in Vero cells (infected cells), Arequipa strain; type: cell-based; conditions: Trypanosoma cruzi, 72 h of treatment
T. cruzi Arequipa strain = experiment: In vivo trypanocidal activity on BALB/c mice (acute and chronic Chagas disease); parameters: species or system Trypanosoma cruzi
Protocol: (§1) Female BALB/c mice aged 10–12 weeks and with a size of 20–24 g were divided into five groups (n = 3 per group): 0, negative control group (uninfected and untreated mice); I, positive control group (infected and untreated mice); II, BZN group (infected mice treated with BZN); III, 26 group (infected mice treated with 26); and IV, 28 group (infected mice treated with 28).
Mice were infected by intraperitoneal injection of 5 × 10^5 BTs of T. cruzi Arequipa strain per mouse in 200 μL PBS.[42] Subsequently, the treatment was intraperitoneally administered (∼200 μL) once daily for 5 consecutive days.
(§2) The tested selenocompounds and BZN were prepared at 2 mg·mL^–1 in an aqueous suspension vehicle containing 5% (v/v) DMSO and 0.5% (w/v) hydroxypropyl methylcellulose, as previously reported.[52] Compounds (20 mg·kg^–1 per day) were administered for 5 consecutive days (total dosages of 100 mg·kg^–1), and vehicle only was administered in the negative and positive control groups. Treatments began when the infection was confirmed (9 dpi) for acute-phase-treated mice, and when it was established that the animals moved into the chronic phase (100 dpi, for chronic-phase-treated mice; Scheme 1).
[…]. Parasitemia was expressed as parasites·mL^–1.
Immunosuppression was performed by intraperitoneal injection of three doses of 200 mg·kg^–1 of ISOPAC CP at 3–4 day intervals (Scheme 1), as previously reported.[53] Mice were closely monitored for side effects or for secondary infections due to immunosuppression. Within 7 days after the last CP injection, parasitemia reactivation was determined by counting BTs according the procedure described for parasitemia in the acute phase.[42]
On 145 dpi, the mice were euthanized using CO2, followed by exsanguination via cardiac puncture, and blood was collected. […]. In addition, spleens were weighed to assess splenomegaly.[42]
DNA extraction of the post-mortem organs/tissues was performed using Wizard Genomic DNA Purification Kit,[41] and the extracted DNA was subjected to amplification by PCR based on the spliced leader (SL) intergenic region sequence of T. cruzi (for detailed description, see literature reported previously).[55] Finally, the PCR products were resolved by electrophoresis on a 2% agarose gel (containing GelRed nucleic gel stain) for 90 min at 90 V.
Circulating antibodies in serum against both antigens were quantitatively evaluated in triplicate by the ELISA test in 96-well plates using diluted serum samples (1:80 in PBS), as previously described.[41]

[11] = type: in vivo, BALB/c mice; conditions: variation vs control
Protocol: as §1, §2
Serum samples obtained from blood in several days post-infection (Scheme 1) were sent to the Biochemical Service (University of Granada) to measure a series of biochemical parameters with the commercial Cromakit using a clinical chemistry analyzer (BS-200, Shenzhen Mindray Biomedical Electronics Co., LTD), as previously described.[41]

[12] = tested on: epimastigotes of T. cruzi Arequipa strain; experiment: Flow cytometry analysis of nucleic acid levels (acridine orange); type: cell-based, Trypanosoma cruzi; conditions: IC25 concentrations, 72 h
Trypanosoma cruzi Fe-SOD = experiment: SOD enzymatic inhibition, Fe-SOD; type: biochemical
[13] = target: T1, human erythrocytes CuZn-SOD (Homo sapiens, UniProt P00441); experiment: SOD enzymatic inhibition, CuZn-SOD; type: biochemical
T1 construct: commercial copper/zinc superoxide dismutase (Cu/Zn-SOD) from human erythrocytes (Sigma-Aldrich); purchased Sigma-Aldrich; host or cells: human erythrocytes (natural source)

[14] = IC50 Vero cells/IC50 epimastigotes
[15] = IC50 Vero cells/IC50 amastigotes
[16] = IC50 Vero cells/IC50 trypomastigotes
[17] = 20 mg·kg–1 per day i.p. 5 days from 9 dpi
[18] = 20 mg·kg–1 per day i.p. 5 days from 100 dpi
[19] = 20 mg·kg–1 per day i.p. for 5 days from 9 dpi
[20] = treatment in acute phase, 15th dpi (2 days after treatment)
[21] = treatment in acute phase, necropsy day
[22] = treatment in chronic phase, 106th dpi (2 days after treatment)
[23] = treatment in chronic phase, necropsy day

T1 sequence (P00441 whole entry): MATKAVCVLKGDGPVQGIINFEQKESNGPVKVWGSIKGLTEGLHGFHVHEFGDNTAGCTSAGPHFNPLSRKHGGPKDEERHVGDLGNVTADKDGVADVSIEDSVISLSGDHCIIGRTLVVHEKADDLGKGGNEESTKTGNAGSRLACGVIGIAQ

N#C[Se]c1ccc(NC(=O)c2ccc(C(F)(F)F)cc2)cc1 [Compound 26]
Selectivity index (SI), epimastigotes, Arequipa strain [1, 14]: 84 | IC50 ([1]; Trypanosoma cruzi, 48 h + 24 h resazurin, read-out: Activity IC50, epimastigote form, Arequipa strain): 1.6 ± 0.3 µM | Selectivity index (SI), epimastigotes, SN3 strain [2, 14]: 64 | IC50 ([2]; Trypanosoma cruzi, 48 h + 24 h resazurin, read-out: Activity IC50, epimastigote form, SN3 strain): 2.1 ± 0.3 µM | Selectivity index (SI), epimastigotes, Tulahuen strain [3, 14]: 52 | IC50 ([3]; Trypanosoma cruzi, TULAHUEN, 48 h + 24 h resazurin, read-out: Activity IC50, epimastigote form, Tulahuen strain): 2.6 ± 0.4 µM | CC50 (Vero cells): 134 ± 11.3 µM | selectivity index (SI), Arequipa strain, am. forms [4, 15]: 25 | IC50 ([4]; Trypanosoma cruzi, amastigotes in Vero cells, 72 h, read-out: activity IC50, Arequipa strain, am. forms): 5.4 ± 0.7 µM | selectivity index (SI), SN3 strain, am. forms [5, 15]: 34 | IC50 ([5]; Trypanosoma cruzi, amastigotes in Vero cells, 72 h, read-out: activity IC50, SN3 strain, am. forms): 3.9 ± 0.5 µM | selectivity index (SI), Tulahuen strain, am. forms [6, 15]: 27 | IC50 ([6]; Trypanosoma cruzi, TULAHUEN, amastigotes in Vero cells, 72 h, read-out: activity IC50, Tulahuen strain, am. forms): 4.9 ± 0.3 µM | selectivity index (SI), Arequipa strain, trypom. forms [7, 16]: 56 | IC50 ([7]; Trypanosoma cruzi, bloodstream trypomastigotes, 24 h + 4 h resazurin, read-out: activity IC50, Arequipa strain, trypom. forms): 2.4 ± 0.3 µM | selectivity index (SI), SN3 strain, trypom. forms [8, 16]: 52 | IC50 ([8]; Trypanosoma cruzi, bloodstream trypomastigotes, 24 h + 4 h resazurin, read-out: activity IC50, SN3 strain, trypom. forms): 2.5 ± 0.3 µM | selectivity index (SI), Tulahuen strain, trypom. forms [9, 16]: 46 | IC50 ([9]; Trypanosoma cruzi, TULAHUEN, bloodstream trypomastigotes, 24 h + 4 h resazurin, read-out: activity IC50, Tulahuen strain, trypom. forms): 2.9 ± 0.2 µM | IC50 [10]: 22.4 µM | anti-T. cruzi IgG levels (ELISA), acute phase treatment (T. cruzi Arequipa strain; [17]): lower IgG values than the treated with BZN at the beginning of the treatment | splenomegaly reduction in comparison with untreated mice, acute phase treatment (T. cruzi Arequipa strain; [17]): 49% | parasitaemia reactivation after immunosuppression, acute phase treatment (T. cruzi Arequipa strain; 20 mg·kg–1 per day i.p. 5 days from 9 dpi, compared to untreated group): approximately 65% | parasite-free organs/tissues by PCR, acute phase treatment (T. cruzi Arequipa strain; 20 mg·kg–1 per day i.p. 5 days from 9 dpi, necropsy 145 dpi): 42.9% | anti-T. cruzi IgG levels (ELISA), chronic phase treatment (T. cruzi Arequipa strain; [18]): similar | splenomegaly reduction in comparison with untreated mice, chronic phase treatment (T. cruzi Arequipa strain; [18]): 38% | parasitaemia reactivation after immunosuppression, chronic phase treatment (T. cruzi Arequipa strain; 20 mg·kg–1 per day i.p. 5 days from 100 dpi, compared to untreated group): ~60% | parasite-free organs/tissues by PCR, chronic phase treatment (T. cruzi Arequipa strain; 20 mg·kg–1 per day i.p. 5 days from 100 dpi, necropsy 145 dpi): 42.9% | day at which parasitaemia was resolved (T. cruzi Arequipa strain; [19]): 48 dpi | parasitaemia profile during the acute phase (T. cruzi Arequipa strain; [19]): better activity profile compared to that of BZN | ALP (liver marker) [11, 20]: + (+/-, 10-20% increase/decrease over the range) | ALT/GPT (liver marker) [11, 20]: ++ (++/--, 20-30% increase/decrease over the range) | AST/GOT (liver marker) [11, 20]: ++ (++/--, 20-30% increase/decrease over the range) | CK-MB (heart marker) [11, 20]: ++++ (++++/----, ˃ 40% increase/decrease over the range) | LDH (heart marker) [11, 20]: + (+/-, 10-20% increase/decrease over the range) | Total bilirubin (liver marker) [11, 20]: ++ (++/--, 20-30% increase/decrease over the range) | Urea (kidney marker) [11, 20]: -- (++/--, 20-30% increase/decrease over the range) | Uric acid (kidney marker) [11, 20]: ---- (++++/----, ˃ 40% increase/decrease over the range) | ALP (liver marker) [11, 21]: ++ (++/--, 20-30% increase/decrease over the range) | ALT/GPT (liver marker) [11, 21]: ++ (++/--, 20-30% increase/decrease over the range) | AST/GOT (liver marker) [11, 21]: = (=, variation ≤ 10%) | CK-MB (heart marker) [11, 21]: = (=, variation ≤ 10%) | LDH (heart marker) [11, 21]: = (=, variation ≤ 10%) | Total bilirubin (liver marker) [11, 21]: + (+/-, 10-20% increase/decrease over the range) | Urea (kidney marker) [11, 21]: = (=, variation ≤ 10%) | Uric acid (kidney marker) [11, 21]: = (=, variation ≤ 10%) | ALP (liver marker) [11, 22]: = (=, variation ≤ 10%) | ALT/GPT (liver marker) [11, 22]: ++ (++/--, 20-30% increase/decrease over the range) | AST/GOT (liver marker) [11, 22]: +++ (+++/---, 30-40% increase/decrease over the range) | CK-MB (heart marker) [11, 22]: + (+/-, 10-20% increase/decrease over the range) | LDH (heart marker) [11, 22]: = (=, variation ≤ 10%) | Total bilirubin (liver marker) [11, 22]: +++ (+++/---, 30-40% increase/decrease over the range) | Urea (kidney marker) [11, 22]: --- (+++/---, 30-40% increase/decrease over the range) | Uric acid (kidney marker) [11, 22]: - (+/-, 10-20% increase/decrease over the range) | ALP (liver marker) [11, 23]: = (=, variation ≤ 10%) | ALT/GPT (liver marker) [11, 23]: = (=, variation ≤ 10%) | AST/GOT (liver marker) [11, 23]: = (=, variation ≤ 10%) | CK-MB (heart marker) [11, 23]: + (+/-, 10-20% increase/decrease over the range) | LDH (heart marker) [11, 23]: = (=, variation ≤ 10%) | Total bilirubin (liver marker) [11, 23]: ++ (++/--, 20-30% increase/decrease over the range) | Urea (kidney marker) [11, 23]: = (=, variation ≤ 10%) | Uric acid (kidney marker) [11, 23]: - (+/-, 10-20% increase/decrease over the range) | inhibition of nucleic acid levels [12]: 47% | IC50 (Trypanosoma cruzi Fe-SOD): 51.9 µM | IC50 [13]: > 100 µM

Source: publication PMC8480776, “Selenium Derivatives as Promising Therapy for Chagas Disease: In Vitro and In Vivo Studies” (ACS Infectious Diseases, 2021)
